The subject of this experiment is rat UUO model of acute kidney injury and chronic kidney disease. The class given is in vivo. The text has this: Composite data represents the average of 3 anatomically distinct depths (10 images/depth/rat/group=˜60-65% of renal cortical area).
Setting [1] is: rat serum, Day 7 post UUO, all groups, dose dependent, relative to the positive control group.

Here are results for two compounds from patent US20250339454A1, “COMPOSITIONS AND METHODS FOR THE PREVENTION OF LOSS OF ORGAN FUNCTION ASSOCIATED WITH CHRONIC ORGAN DISEASE” (Revelation Biosciences, Inc., priority 2023, published 2025).

“Also recorded” adds a separate entry of the source. Like-named read-outs stand apart in the source and are kept apart here.

For `Cc1cccc(-c2[nH]c(C(C)(C)C)nc2-c2ccc3nccnc3c2)n1` [SB-525334, reference compound], under “reference compound, dose not given”, the “UUO-induced increases in renal cortical CVF” value (“UUO-induced increases” below) is on record as “attenuated”.
“phosphorylated hexaacyl disaccharide [REVTx-300]”: the “IL-6 (marker of inflammation)” value (UUO model) is “no increase”. In addition, the “fibrosis (collagen volume fraction, total collagen deposition via PicoSirius Red)” value (daily administration, dose dependent, relative to the positive control group) was “significant reduction; also recorded: Dose-dependent reduction”. Moreover, where the note is “dosed at 0.3 mg/kg”, the “UUO-induced increases” value was “attenuated”. For the same compound, under “dosed at 0.9 mg/kg”, the “UUO-induced increases” value was “attenuated”. Moreover, under “rat serum, Day 7 post UUO”, the “IL-1β (marker of inflammation)” value is listed as “relatively minor increase” and the “IL-18 (marker of inflammation)” value is on record as “relatively minor increase”. Also, under setting [1], the “circulating anti-inflammatory interleukin-10 (IL-10)” value is “significantly increased”, the circulating hepcidin result is “significantly increased” and the “circulating neutrophil gelatinase-associated lipocalin (NGAL)” value is on record as “significantly increased”. For the same compound, the “circulating transforming growth factor-β (TGF-β)” value (rat serum, Day 7 post UUO, daily administration, dose dependent, relative to the positive control group) is given as “significant reduction”.
